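Results reflect a 48-hour exposure of cells in 96-well plates to compound at five concentrations. GI50 = concentration required for 50% inhibition of growth. TGI denotes the concentration required for complete inhibition of growth.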
Columns and labels:
Test in all cases: DTP human tumour cell line panel, 48 h
[1] = system: OVCAR-5 ovarian
[2] = system: UACC-257 melanoma
[3] = system: A549 NSCLC
[4] = system: MDA-MB-231 breast
[5] = system: SNB-75 CNS
[6] = system: OVCAR-4 ovarian
[7] = system: HCT-15 colon
[8] = system: IGROV1 ovarian
[9] = system: 786-0 renal
[10] = system: MALME-3M melanoma

Row | SMILES | GI50 [1] | TGI [1] | GI50 [2] | TGI [2] | GI50 [3] | TGI [3] | GI50 [4] | TGI [4] | GI50 [5] | TGI [5] | TGI [6] | TGI [7] | TGI [8] | TGI [9] | TGI [10] | GI50 [7] | GI50 [10]
1 | ClCCN(CCCl)Cc1ccc(Nc2ccnc3cc(Cl)ccc23)cc1 | 2.57 µM | 6.66 µM | 1.9 µM | 5.71 µM | 1.11 µM | 5.08 µM | 1.66 µM | 3.49 µM | 1.34 µM | 3.72 µM | – | – | – | – | – | – | –
2 | O=c1[nH]cnc2c1nnn2CCCn1nnc2c(=O)[nH]cnc21 | – | > 100 µM | – | > 100 µM | – | > 100 µM | – | – | – | – | > 100 µM | > 100 µM | > 100 µM | > 100 µM | – | – | –
3 | Cc1c(C)c(C)c(-n2c(=O)n(C)c(=O)n2C(C)(C)C)c(C)c1C | – | > 100 µM | – | > 100 µM | – | > 100 µM | – | > 100 µM | – | > 100 µM | > 100 µM | > 100 µM | – | > 100 µM | – | – | –
4 | c1cnc2c(c1)-n1cccc1C1(CCOCC1)NN2 | – | – | – | – | – | > 100 µM | – | – | – | > 100 µM | > 100 µM | > 100 µM | > 100 µM | > 100 µM | > 100 µM | – | –
5 | Cc1ncc([N+](=O)[O-])n1CCN(C)CCCCn1ccnc1[N+](=O)[O-] | – | > 100 µM | – | > 100 µM | – | > 100 µM | – | > 100 µM | – | > 100 µM | > 100 µM | > 100 µM | – | > 100 µM | > 100 µM | – | –
6 | [N-]=N[N+]#I1OC(C(F)(F)F)(C(F)(F)F)c2ccccc21 | – | 28.5 µM | – | 75.9 µM | – | 39.2 µM | – | 29 µM | – | 32.5 µM | 28.9 µM | 21.2 µM | 32.7 µM | 31.6 µM | – | – | –
7 | CO/C(=N\N=C(/C)C(F)(F)F)c1ccncc1 | – | > 100 µM | – | – | – | – | – | > 100 µM | – | > 100 µM | > 100 µM | > 100 µM | > 100 µM | – | > 100 µM | – | –
8 | O=C(NCCNCCO)N/N=C/c1cccc([N+](=O)[O-])c1 | – | > 100 µM | – | > 100 µM | – | > 100 µM | – | – | – | > 100 µM | > 100 µM | > 100 µM | > 100 µM | > 100 µM | > 100 µM | – | –
9 | COC[C@H]1C(=O)NCC(=O)N2NCCC[C@H]2C(=O)N(O)[C@H](C)C(=O)O[C@@H](C(C)C)[C@H](NC(=O)[C@](C)(O)[C@]2(O)CC[C@@H](CC(C)C)[C@H](C)O2)C(=O)N2NCCC[C@@H]2C(=O)N1O | 0.015 µM | 0.0333 µM | 0.015 µM | 0.0292 µM | < 0.0128 µM | 0.028 µM | < 0.0111 µM | 0.0432 µM | < 0.01 µM | 0.011 µM | – | 0.0433 µM | – | – | 0.0291 µM | 0.0176 µM | 0.0142 µM
10 | CC1=C/C(=C(\c2ccc(N(C)C)cc2)c2ccc([N+](C)(C)C)cc2)C=CC1=[N+](C)C | – | 69 µM | – | 27.9 µM | – | 28.9 µM | – | – | – | 10.6 µM | 32.9 µM | > 100 µM | 26.6 µM | 58.2 µM | 32.3 µM | – | –
11 | C=C/C(C)=C/[C@H](C)C(=O)C[C@H](O)CC1CC(=O)NC(=O)C1 | – | > 100 µM | – | 97.9 µM | – | > 100 µM | – | – | – | > 100 µM | > 100 µM | > 100 µM | > 86.7 µM | – | > 100 µM | – | –

Reference: PubChem BioAssay (NCI)
